One series has as its target T1, OATP1B1 (Homo sapiens, UniProt Q9Y6L6).
T1 construct: expressed in transfected cells; host or cells: HEK293 (recombinant baculovirus-mediated transduction)
T1 sequence (Q9Y6L6 1-691): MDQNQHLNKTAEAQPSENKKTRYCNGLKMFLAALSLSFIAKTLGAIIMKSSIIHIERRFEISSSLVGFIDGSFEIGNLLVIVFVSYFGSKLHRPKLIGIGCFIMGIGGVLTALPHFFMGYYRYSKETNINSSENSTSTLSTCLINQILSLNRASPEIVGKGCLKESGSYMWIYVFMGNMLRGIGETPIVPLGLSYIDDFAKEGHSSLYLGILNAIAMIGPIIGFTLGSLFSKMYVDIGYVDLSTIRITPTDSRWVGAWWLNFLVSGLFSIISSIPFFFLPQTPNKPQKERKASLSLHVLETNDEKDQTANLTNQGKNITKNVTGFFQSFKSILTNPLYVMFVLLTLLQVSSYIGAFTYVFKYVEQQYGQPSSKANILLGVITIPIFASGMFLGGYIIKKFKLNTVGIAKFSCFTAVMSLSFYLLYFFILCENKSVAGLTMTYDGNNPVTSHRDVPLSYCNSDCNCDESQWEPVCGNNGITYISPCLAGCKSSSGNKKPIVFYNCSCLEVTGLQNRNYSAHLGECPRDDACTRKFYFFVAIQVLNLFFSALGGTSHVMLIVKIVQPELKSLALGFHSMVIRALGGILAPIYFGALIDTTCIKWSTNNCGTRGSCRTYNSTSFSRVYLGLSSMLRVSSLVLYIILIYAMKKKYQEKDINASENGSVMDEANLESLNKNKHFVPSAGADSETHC
Description: Determination of inhibition constant Ki for OATP1B1, rosuvastatin. It counts as cell-based. Conditions: rosuvastatin 1-80 µM, 30 min preincubation, 2 min; read-out: Ki-value for the competitive inhibition of OATP1B1. Here is the method:
were removed and 300 µl of warm TP-buffer was added to each well and incubated for 5 min.
The washing was repeated twice , after which the transport assays were conducted in the presence of 1 µM 2′,7′ -dichlorofluorescein for 5 min. The wells that were pre -incubated with […]
incubated with the vehicle contained three different inhibitor concentrations. After the transport assays, the samples were treated and analyzed similarly as described in the main text and above. The uptake into vehicle control samples w as set to a value of 100% and all the inhibitor samples are presented relative to the vehicle control samples. […]
determined in a single experiment in triplicate samples by using 1 µM, 4 µM and 20 µM […]
µM, 2.5 µM, 10 µM, 20 µM, 40 µM and 80 µM). The assays included a 30 min preincubation step with the inhibitor , and the transport assays were conducted for 2 min . Further details are reported in the methods of the main text. The Ki value was calculated by fitting the com petitive inhibition model to the data with the nonlinear least squares method (nls) in R programming language environment (R version 4.3.1) :
Uptake refers to the rate of uptake in OATP1B1-expressing cells, after subtracting the uptake in control cells , Vmax is the maximum rate of transport, K m is the Michaelis constant, S is the […]
Efflux transport assays in HEK293 membrane vesicles […]

In the next series the test system is CYP3A4. Conditions: model input; cited from earlier work.
Series [1] is described as follows: PBPK model input parameters (binding, absorption, distribution, elimination), Simcyp. More on the design: species or system human.
Description: The volume of distribution
at steady-state (Vss), predicted using the Rodgers and Rowland model (Model 2) within the
oral (PO) data.7–9,11,12,14,24 Only studies with 1000 mg dosing or lower were included in the
model development and verification due to the possible nonlinear renal clearance of
(CLH) as a human liver microsomal clearance from the in vivo CLH calculated by subtracting
the CLR from the total CL. The model for oral dosing was optimized using data from the study
by Putnam et al. (2005).9 The absorption rate constant (ka) was calculated from the reported
mean absorption time9 and the fraction absorbed (fa) was optimized manually. The obtained
Tissue distribution was described using the full-body PBPK model, with the tissue-to-plasma
partition coefficient (Kp) predicted based on the Rodgers and Rowland method integrated
within the simulator (Method 2). The Kp value for adipose was optimized manually (0.04 to
Setting [2] is: retrograde calculation from CLH (2.65 l/h).

Usually Ki stands for the dissociation constant of the complex between target and ligand, obtained from inhibition or displacement.

Structures are written as SMILES.

On to `Cc1onc(-c2c(Cl)cccc2Cl)c1C(=O)N[C@@H]1C(=O)N2[C@@H]1SC(C)(C)[C@@H]2C(=O)O` [Dicloxacillin], for which the inhibition constant (Ki) at OATP1B1 stood at 3.65 µM.
Regarding `Cc1onc(-c2c(F)cccc2Cl)c1C(=O)N[C@@H]1C(=O)N2[C@@H]1SC(C)(C)[C@@H]2C(=O)O` [Flucloxacillin], the “CYP3A4 Indmax” value with CYP3A4 is 4.6. Moreover, in series [1] (Total CL – CLR), the “CLH” value came out at 2.65 L/h. In addition, in series [1] (setting [2]), the “CLu,int,CYP2C9 (µl/min/pmol P450)” value is 0.124 µl/min/pmol P450 and the “CLu,int,CYP3A4 (µl/min/pmol P450)” value is 0.062 µl/min/pmol P450.

The record behind these values is article PMC12865225 (Clinical and Translational Science, 2026).
